Experimental data reported in US9556165B2 (priority 2012, dated 2017).
≈ marks a conversion by molar mass, not a printed value. Like-named read-outs stand apart in the source and are kept apart here.

Tests used:
Format in all cases: cell-based
P. aeruginosa PAO1 = assay: MIC determination, broth microdilution (CLSI); details: Pseudomonas aeruginosa, PAO1, strain 6
M. morganii 126/3048 = assay: MIC determination, broth microdilution (CLSI); details: Morganella morganii, 126/3048, strain 5
K. pneumoniae 60 = assay: MIC determination, broth microdilution (CLSI); details: Klebsiella pneumoniae, 60, strain 2
S. pneumoniae 113 = assay: MIC determination, broth microdilution (CLSI); details: Streptococcus pneumoniae, 113, strain 13; broth microdilution; read-out: MIC strain 13 (S. pneumoniae 113)
H. influenzae ATCC 49247 = assay: MIC determination, broth microdilution (CLSI); details: Haemophilus influenzae, ATCC49247, strain 12; broth microdilution; read-out: MIC strain 12 (H. influenzae ATCC 49247)
[1] = tested on: P. aeruginosa 2297 (AmpC wt); assay: MIC determination, broth microdilution (CLSI); details: Pseudomonas aeruginosa, strain 7
B. fragilis 6688 = assay: MIC determination, broth microdilution (CLSI); details: Bacteroides fragilis, 6688, strain 15; broth microdilution; read-out: MIC strain 15 (B. fragilis 6688)
[2] = tested on: P. aeruginosa 2297-con (AmpC derepressed); assay: MIC determination, broth microdilution (CLSI); details: Pseudomonas aeruginosa, read-out: strain 8 MIC, strain 8
A. baumannii ATCC15308 = assay: MIC determination, broth microdilution (CLSI); details: Acinetobacter baumannii, ATCC15308, strain 9
S. aureus 133 = assay: MIC determination, broth microdilution (CLSI)
E. cloacae 34654 = assay: MIC determination, broth microdilution (CLSI); details: Enterobacter cloacae, 34654, strain 3
C. freundii K21/3034 = assay: MIC determination, broth microdilution (CLSI); details: Citrobacter freundii, K21/3034, strain 4
Bacteria = assay: MIC determination in combination with β-lactamase inhibitors (constant 4 μg/mL)
E. coli ATCC25922 = assay: MIC determination, broth microdilution (CLSI); details: Escherichia coli, ATCC25922, strain 1
E. coli J62 = assay: MIC determination, broth microdilution (CLSI); details: Escherichia coli, J62, strain 17; broth microdilution; read-out: MIC strain 17 (E. coli J62)
E. coli J62-TEM-3 = assay: MIC determination, broth microdilution (CLSI); details: Escherichia coli, J62TEM3, read-out: MIC strain 18 (E. coli J62-TEM-3), strain 18; broth microdilution
[3] = Staphylococcus aureus, 133, strain 11, read-out: strain 11 MIC
[4] = Staphylococcus aureus, 133, strain 14, broth microdilution, read-out: MIC strain 14 (S. aureus 133)

SMILES | MIC (P. aeruginosa PAO1) | MIC (M. morganii 126/3048) | MIC (K. pneumoniae 60) | MIC (S. pneumoniae 113) | MIC (H. influenzae ATCC 49247) | MIC [1] | MIC (B. fragilis 6688) | MIC [2] | MIC (A. baumannii ATCC15308) | MIC (S. aureus 133; [3]) | MIC (S. aureus 133; [4]) | MIC (E. cloacae 34654) | MIC (C. freundii K21/3034) | MIC strain 19 (E. coli J62-TEM-3 + 4 μg/mL clavulanic acid) (Bacteria) | MIC strain 20 (E. coli J62-TEM-3 + 4 μg/mL sulbactam) (Bacteria) | MIC strain 21 (E. coli J62-TEM-3 + 4 μg/mL tazobactam) (Bacteria) | MIC (E. coli ATCC25922) | MIC (E. coli J62) | MIC (E. coli J62-TEM-3)
C[C@@H]1[C@H](NC(=O)/C(=N\OCCCOc2ccc(C(=N)N)cc2)c2csc(N)n2)C(=O)N1S(=O)(=O)O [Example 48, (2R,3S)-3-{[(2Z)-2-(2-Amino-1,3-thiazol-4-yl)-2-{[3-(4-carbamimidoylphenoxy)propoxy]imino}acetyl]amino}-2-methyl-4-oxoazetidine-1-sulfonic acid] | 8 µg/mL (≈ 15.2 µM) | 1 µg/mL (≈ 1.9 µM) | 4 µg/mL (≈ 7.61 µM) | 1 µg/mL (≈ 1.9 µM) | 0.5 µg/mL (≈ 0.951 µM) | 16 µg/mL (≈ 30.4 µM) | 16 µg/mL (≈ 30.4 µM) | 32 µg/mL (≈ 60.9 µM) | 8 µg/mL (≈ 15.2 µM) | 0.5 µg/mL (≈ 0.951 µM) | 4 µg/mL (≈ 7.61 µM) | 4 µg/mL (≈ 7.61 µM) | 2 µg/mL (≈ 3.81 µM) | 2 µg/mL | 2 µg/mL | 2 µg/mL | 2 µg/mL (≈ 3.81 µM) | 2 µg/mL (≈ 3.81 µM) | 
C[C@H]1[C@H](NC(=O)/C(=N\OCCOc2ccc(C(=N)N)cc2Br)c2csc(N)n2)C(=O)N1S(=O)(=O)O [Example 49, (2S,3S)-3-{[(2Z)-2-(2-Amino-1,3-thiazol-4-yl)-2-{[2-(2-bromo-4-carbamimidoyl-phenoxy)ethoxy]imino}acetyl]amino}-2-methyl-4-oxoazetidine-1-sulfonic acid] | 8 µg/mL (≈ 13.5 µM) | 2 µg/mL (≈ 3.39 µM) | 2 µg/mL (≈ 3.39 µM) | 0.5 µg/mL (≈ 0.847 µM) | 0.5 µg/mL (≈ 0.847 µM) | 16 µg/mL (≈ 27.1 µM) | 16 µg/mL (≈ 27.1 µM) | 32 µg/mL (≈ 54.2 µM) | 4 µg/mL (≈ 6.77 µM) | 0.125 µg/mL (≈ 0.212 µM) | 16 µg/mL (≈ 27.1 µM) | 2 µg/mL (≈ 3.39 µM) | 1 µg/mL (≈ 1.69 µM) | 2 µg/mL | 2 µg/mL | 2 µg/mL | 1 µg/mL (≈ 1.69 µM) | 2 µg/mL (≈ 3.39 µM) | 
C[C@H]1[C@H](NC(=O)/C(=N\OCCOc2ccc(NC(=N)N)cc2)c2csc(N)n2)C(=O)N1S(=O)(=O)O [Example 50, (2S,3S)-3-{[(2Z)-2-(2-Amino-1,3-thiazol-4-yl)-2-{[2-(4-carbamimidamidophenoxy)ethoxy]imino}acetyl]amino}-2-methyl-4-oxoazetidine-1-sulfonic acid] | 8 µg/mL (≈ 15.2 µM) | 0.5 µg/mL (≈ 0.95 µM) | 0.5 µg/mL (≈ 0.95 µM) | 1 µg/mL (≈ 1.9 µM) | 0.25 µg/mL (≈ 0.475 µM) | 16 µg/mL (≈ 30.4 µM) | 16 µg/mL (≈ 30.4 µM) | 32 µg/mL (≈ 60.8 µM) | 2 µg/mL (≈ 3.8 µM) | 0.125 µg/mL (≈ 0.237 µM) | 8 µg/mL (≈ 15.2 µM) | 1 µg/mL (≈ 1.9 µM) | 1 µg/mL (≈ 1.9 µM) | 1 µg/mL | 1 µg/mL | 1 µg/mL | 0.5 µg/mL (≈ 0.95 µM) | 1 µg/mL (≈ 1.9 µM) | 
C[C@H]1[C@H](NC(=O)/C(=N\OCCCOc2ccc(NC(=N)N)cc2)c2csc(N)n2)C(=O)N1S(=O)(=O)O [Example 51, (2S,3S)-3-{[(2Z)-2-(2-Amino-1,3-thiazol-4-yl)-2-{[3-(4-carbamimidamidophenoxy)propoxy]imino}acetyl]amino}-2-methyl-4-oxoazetidine-1-sulfonic acid] | 16 µg/mL (≈ 29.6 µM) | 2 µg/mL (≈ 3.7 µM) | 4 µg/mL (≈ 7.4 µM) | 1 µg/mL (≈ 1.85 µM) | 0.5 µg/mL (≈ 0.925 µM) | 16 µg/mL (≈ 29.6 µM) | 16 µg/mL (≈ 29.6 µM) | 32 µg/mL (≈ 59.2 µM) | 4 µg/mL (≈ 7.4 µM) | 0.5 µg/mL (≈ 0.925 µM) | 8 µg/mL (≈ 14.8 µM) | 2 µg/mL (≈ 3.7 µM) | 2 µg/mL (≈ 3.7 µM) | 4 µg/mL | 4 µg/mL | 4 µg/mL | 2 µg/mL (≈ 3.7 µM) | 4 µg/mL (≈ 7.4 µM) | 
C[C@H]1[C@H](NC(=O)/C(=N\OCCOc2ccc(C(=N)N)cc2)c2nsc(N)n2)C(=O)N1S(=O)(=O)O [Example 52] | 4 µg/mL (≈ 7.8 µM) | 1 µg/mL (≈ 1.95 µM) | 0.5 µg/mL (≈ 0.976 µM) | 16 µg/mL (≈ 31.2 µM) | 8 µg/mL (≈ 15.6 µM) | 4 µg/mL (≈ 7.8 µM) | 32 µg/mL (≈ 62.4 µM) | 16 µg/mL (≈ 31.2 µM) | 1 µg/mL (≈ 1.95 µM) | 2 µg/mL (≈ 3.9 µM) | 8 µg/mL (≈ 15.6 µM) | 1 µg/mL (≈ 1.95 µM) | 0.25 µg/mL (≈ 0.488 µM) | 2 µg/mL | 2 µg/mL | 2 µg/mL | 1 µg/mL (≈ 1.95 µM) | 2 µg/mL (≈ 3.9 µM) | 
C[C@H]1[C@H](NC(=O)/C(=N\OCc2ccc(C(=N)N)cc2)c2csc(N)n2)C(=O)N1S(=O)(=O)O [Example 55, (2S,3S)-3-{[(2Z)-2-(2-Amino-1,3-thiazol-4-yl)-2-{[(4-carbamimidoylbenzyl)oxy]imino}-acetyl]amino}-2-methyl-4-oxoazetidine-1-sulfonic acid] | 16 µg/mL (≈ 33.2 µM) | 0.25 µg/mL (≈ 0.519 µM) | 1 µg/mL (≈ 2.08 µM) | 0.125 µg/mL (≈ 0.26 µM) | 1 µg/mL (≈ 2.08 µM) |  | 8 µg/mL (≈ 16.6 µM) | 32 µg/mL (≈ 66.5 µM) | 4 µg/mL (≈ 8.31 µM) | 0.25 µg/mL (≈ 0.519 µM) | 8 µg/mL (≈ 16.6 µM) | 0.5 µg/mL (≈ 1.04 µM) | 0.25 µg/mL (≈ 0.519 µM) | 1 µg/mL | 0.5 µg/mL | 0.5 µg/mL | 0.5 µg/mL (≈ 1.04 µM) | 1 µg/mL (≈ 2.08 µM) | 
C[C@H]1[C@H](NC(=O)/C(=N\OCCOc2ccc(C(=N)N)cc2CO)c2csc(N)n2)C(=O)N1S(=O)(=O)O [Example 59, (2S,3S)-3-{[(2Z)-2-(2-Amino-1,3-thiazol-4-yl)-2-({2-[4-carbamimidoyl-2-(hydroxymethyl)phenoxy]ethoxy}imino)acetyl]amino}-2-methyl-4-oxoazetidine-1-sulfonic acid] | 16 µg/mL (≈ 29.5 µM) | 1 µg/mL (≈ 1.85 µM) | 1 µg/mL (≈ 1.85 µM) | 0.5 µg/mL (≈ 0.923 µM) | 1 µg/mL (≈ 1.85 µM) | 16 µg/mL (≈ 29.5 µM) | 16 µg/mL (≈ 29.5 µM) | 32 µg/mL (≈ 59.1 µM) | 1 µg/mL (≈ 1.85 µM) | 0.25 µg/mL (≈ 0.462 µM) | 32 µg/mL (≈ 59.1 µM) | 1 µg/mL (≈ 1.85 µM) | 0.5 µg/mL (≈ 0.923 µM) | 2 µg/mL | 2 µg/mL | 2 µg/mL | 1 µg/mL (≈ 1.85 µM) | 2 µg/mL (≈ 3.69 µM) | 32 µg/mL (≈ 59.1 µM)
C[C@H]1[C@H](NC(=O)/C(=N\OCCOc2ccc(C(=N)N)cc2COC=O)c2csc(N)n2)C(=O)N1S(=O)(=O)O [Example 60, (2S,3S)-3-({(2Z)-2-(2-Amino-1,3-thiazol-4-yl)-2-[(2-{4-carbamimidoyl-2-[(formyloxy)-methyl]phenoxy}ethoxy)imino]acetyl}amino)-2-methyl-4-oxoazetidine-1-sulfonic acid] | 16 µg/mL (≈ 28.1 µM) | 0.5 µg/mL (≈ 0.878 µM) | 1 µg/mL (≈ 1.76 µM) | 1 µg/mL (≈ 1.76 µM) | 1 µg/mL (≈ 1.76 µM) | 16 µg/mL (≈ 28.1 µM) | 16 µg/mL (≈ 28.1 µM) | 32 µg/mL (≈ 56.2 µM) | 4 µg/mL (≈ 7.02 µM) | 0.25 µg/mL (≈ 0.439 µM) | 16 µg/mL (≈ 28.1 µM) | 2 µg/mL (≈ 3.51 µM) | 1 µg/mL (≈ 1.76 µM) | 2 µg/mL | 2 µg/mL | 2 µg/mL | 1 µg/mL (≈ 1.76 µM) | 2 µg/mL (≈ 3.51 µM) | 32 µg/mL (≈ 56.2 µM)
C[C@H]1[C@H](NC(=O)/C(=N\OCCOc2ccc(CC(=N)N)cc2)c2csc(N)n2)C(=O)N1S(=O)(=O)O [Example 62, (2S,3S)-3-{[(2Z)-2-({2-[4-(2-Amino-2-iminoethyl)phenoxy]ethoxy}imino)-2-(2-amino-1,3-thiazol-4-yl)acetyl]amino}-2-methyl-4-oxoazetidine-1-sulfonic acid] | 4 µg/mL (≈ 7.61 µM) | 0.125 µg/mL (≈ 0.238 µM) | 0.5 µg/mL (≈ 0.951 µM) | 1 µg/mL (≈ 1.9 µM) | 0.25 µg/mL (≈ 0.476 µM) | 8 µg/mL (≈ 15.2 µM) | 16 µg/mL (≈ 30.4 µM) | 32 µg/mL (≈ 60.9 µM) | 2 µg/mL (≈ 3.81 µM) | 0.125 µg/mL (≈ 0.238 µM) | 8 µg/mL (≈ 15.2 µM) | 1 µg/mL (≈ 1.9 µM) | 0.5 µg/mL (≈ 0.951 µM) | 1 µg/mL | 1 µg/mL | 1 µg/mL | 1 µg/mL (≈ 1.9 µM) | 1 µg/mL (≈ 1.9 µM) | 16 µg/mL (≈ 30.4 µM)
